# Measured values: article PMC11327140, “Selective inhibitor of sodium-calcium exchanger, SEA0400, affects NMDA receptor currents and abolishes their calcium-dependent block by tricyclic antidepressants” (Frontiers in Pharmacology, 2024)
# Several values for one entry are separate records, joined by “and”; a condition that tells them apart may be missing. Equal values may be shown once. Entries after “also recorded” stand apart in the source; their conditions may differ.
# Legend:
# [1] = molecular target: NMDA receptor (NMDAR) currents (Rattus norvegicus, UniProt P35439+Q00959+Q00960); assay: Whole-cell patch-clamp recording of NMDA-activated currents in cortical neurons of primary culture; format: cell-based; details: for change of fraction of current blocked in the presence of SEA0400: 50 nM SEA0400, 10 µM KB-R7943, 10 µM ATL, 1 µM DES; for increase of IC50 for NMDAR inhibition in the presence of SEA0400: 50 nM SEA0400 versus control
# [2] = system: NMDAR currents; set-up: method as in Sibarov et al., 2015; details: 10 µM KB-R7943; ref Sibarov et al., 2015; cited from earlier work
# [3] = system: NMDAR channels; set-up: method as in MacDonald et al., 1991; details: ref MacDonald et al., 1991; cited from earlier work
# [4] = system: NCX; set-up: method as in Matsuda et al., 2001; details: ref Matsuda et al., 2001; read-out: IC50 for SEA0400 inhibition of NCX in neurons; cited from earlier work
# Chain of NMDA receptor (NMDAR) currents (Q00960 27-1482 limits assumed, other chains not shown): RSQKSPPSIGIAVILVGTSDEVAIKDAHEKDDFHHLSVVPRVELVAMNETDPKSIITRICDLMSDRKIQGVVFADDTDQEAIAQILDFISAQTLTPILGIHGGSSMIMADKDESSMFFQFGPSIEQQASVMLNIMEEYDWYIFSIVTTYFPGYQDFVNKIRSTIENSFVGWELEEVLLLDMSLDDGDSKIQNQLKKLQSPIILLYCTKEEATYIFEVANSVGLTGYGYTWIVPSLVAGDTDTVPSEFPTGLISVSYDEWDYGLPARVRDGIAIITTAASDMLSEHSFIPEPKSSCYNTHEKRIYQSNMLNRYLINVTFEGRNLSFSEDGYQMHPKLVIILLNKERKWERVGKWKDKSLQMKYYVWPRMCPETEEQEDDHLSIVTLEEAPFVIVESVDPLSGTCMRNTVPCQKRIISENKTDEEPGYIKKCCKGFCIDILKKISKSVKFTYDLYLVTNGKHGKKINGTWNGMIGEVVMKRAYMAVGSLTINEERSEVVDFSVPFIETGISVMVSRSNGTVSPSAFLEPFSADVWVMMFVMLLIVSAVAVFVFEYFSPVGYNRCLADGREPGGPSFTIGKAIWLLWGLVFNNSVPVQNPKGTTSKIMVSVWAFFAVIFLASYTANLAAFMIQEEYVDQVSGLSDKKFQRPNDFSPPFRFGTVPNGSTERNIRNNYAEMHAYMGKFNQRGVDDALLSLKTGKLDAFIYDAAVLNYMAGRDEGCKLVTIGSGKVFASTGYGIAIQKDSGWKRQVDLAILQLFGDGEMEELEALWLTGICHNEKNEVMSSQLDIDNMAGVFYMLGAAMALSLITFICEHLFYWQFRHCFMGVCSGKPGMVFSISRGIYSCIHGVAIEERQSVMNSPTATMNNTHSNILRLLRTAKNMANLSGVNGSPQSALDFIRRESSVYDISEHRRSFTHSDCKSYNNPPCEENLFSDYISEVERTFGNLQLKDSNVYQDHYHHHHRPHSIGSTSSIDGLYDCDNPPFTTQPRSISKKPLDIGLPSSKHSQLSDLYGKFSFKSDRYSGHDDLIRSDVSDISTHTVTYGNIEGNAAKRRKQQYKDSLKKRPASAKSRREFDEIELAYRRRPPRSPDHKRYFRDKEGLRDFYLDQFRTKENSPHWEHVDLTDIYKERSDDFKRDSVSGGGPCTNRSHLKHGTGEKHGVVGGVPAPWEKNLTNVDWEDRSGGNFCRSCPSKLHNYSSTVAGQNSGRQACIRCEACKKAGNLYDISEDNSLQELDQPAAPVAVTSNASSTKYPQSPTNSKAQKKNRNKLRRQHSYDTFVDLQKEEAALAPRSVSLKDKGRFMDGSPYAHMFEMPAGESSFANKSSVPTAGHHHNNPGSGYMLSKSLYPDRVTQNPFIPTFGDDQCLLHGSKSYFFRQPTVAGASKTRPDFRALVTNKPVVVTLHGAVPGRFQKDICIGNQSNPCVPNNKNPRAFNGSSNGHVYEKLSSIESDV
# Chain of NMDA receptor (NMDAR) currents (Q00959 23-1464 limits assumed, other chains not shown): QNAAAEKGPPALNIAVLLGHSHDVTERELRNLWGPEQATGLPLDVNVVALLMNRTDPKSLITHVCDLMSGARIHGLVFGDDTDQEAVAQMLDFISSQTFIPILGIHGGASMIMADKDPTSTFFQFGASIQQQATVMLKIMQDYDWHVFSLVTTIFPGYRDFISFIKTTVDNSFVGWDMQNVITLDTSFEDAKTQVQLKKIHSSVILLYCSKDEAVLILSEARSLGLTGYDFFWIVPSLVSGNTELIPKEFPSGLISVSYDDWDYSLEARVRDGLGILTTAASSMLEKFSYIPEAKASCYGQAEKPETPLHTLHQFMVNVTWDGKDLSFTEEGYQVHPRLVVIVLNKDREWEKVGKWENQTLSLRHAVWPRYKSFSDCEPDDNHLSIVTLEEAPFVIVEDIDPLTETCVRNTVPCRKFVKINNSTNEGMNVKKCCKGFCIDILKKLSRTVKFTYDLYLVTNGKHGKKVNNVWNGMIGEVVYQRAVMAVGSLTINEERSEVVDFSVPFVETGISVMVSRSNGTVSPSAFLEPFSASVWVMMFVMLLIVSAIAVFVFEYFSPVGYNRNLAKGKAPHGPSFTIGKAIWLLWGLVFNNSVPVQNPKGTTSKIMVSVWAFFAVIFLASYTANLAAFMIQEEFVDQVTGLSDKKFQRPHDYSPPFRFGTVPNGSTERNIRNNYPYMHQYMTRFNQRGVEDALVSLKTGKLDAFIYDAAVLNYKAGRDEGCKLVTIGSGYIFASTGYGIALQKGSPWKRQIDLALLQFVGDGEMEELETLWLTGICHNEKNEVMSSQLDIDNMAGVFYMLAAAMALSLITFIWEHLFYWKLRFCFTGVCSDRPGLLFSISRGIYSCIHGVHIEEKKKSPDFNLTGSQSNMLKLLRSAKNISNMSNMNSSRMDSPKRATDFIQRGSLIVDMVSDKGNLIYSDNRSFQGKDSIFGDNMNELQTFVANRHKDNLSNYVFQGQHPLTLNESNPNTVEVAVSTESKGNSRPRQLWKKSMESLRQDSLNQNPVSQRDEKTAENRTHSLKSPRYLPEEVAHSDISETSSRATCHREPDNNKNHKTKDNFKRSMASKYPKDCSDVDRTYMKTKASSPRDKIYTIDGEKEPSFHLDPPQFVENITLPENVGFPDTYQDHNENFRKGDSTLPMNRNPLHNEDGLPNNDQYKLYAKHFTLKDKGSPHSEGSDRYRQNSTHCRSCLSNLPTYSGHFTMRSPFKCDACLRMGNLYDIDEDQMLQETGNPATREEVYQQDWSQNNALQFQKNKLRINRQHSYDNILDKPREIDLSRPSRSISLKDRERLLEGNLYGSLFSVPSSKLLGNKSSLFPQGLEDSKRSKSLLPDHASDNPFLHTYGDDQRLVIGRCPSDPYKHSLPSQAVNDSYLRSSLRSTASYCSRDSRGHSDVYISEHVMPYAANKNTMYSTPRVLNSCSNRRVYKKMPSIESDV
smiles,measurement,setting,value
"CN(C)CCC=C1c2ccccc2CCc2ccccc21 [ATL, amitriptyline]",change of fraction of current blocked in the presence of SEA0400,"[1]; 1 mM Ca2+, -70 mV",decreased
same,increase of IC50 for NMDAR inhibition in the presence of SEA0400,[1],23 fold
same,increase of IC50 for NMDAR inhibition in the presence of SEA0400,[1]; listed as amitriptyline,about 20 fold
"CNCCCN1c2ccccc2CCc2ccccc21 [DES, desipramine]",change of fraction of current blocked in the presence of SEA0400,"[1]; 1 mM Ca2+, -70 mV",decreased
same,increase of IC50 for NMDAR inhibition in the presence of SEA0400,[1],~16 fold
same,increase of IC50 for NMDAR inhibition in the presence of SEA0400,[1]; listed as desipramine,about 20 fold
N=C(N)SCCc1ccc(OCc2ccc([N+](=O)[O-])cc2)cc1 [KB-R7943],change of fraction of current blocked in the presence of SEA0400,"[1]; 1 mM Ca2+, -70 mV",increased
same,decrease of NMDAR currents,[2],about 60%
C[C@]12N[C@H](Cc3ccccc31)c1ccccc12 [MK-801],rate constant of dissociation from NMDAR channels,[3],~0.003 s⁻¹
CCOc1ccc(Oc2ccc(OCc3cc(F)ccc3F)cc2)c(N)c1 [SEA0400],IC50,[4],33 nM
same,decrease of decay time constant versus control,"[1]; 50 nM SEA0400, 1 mM Ca2+",2 fold
same,effect on NMDAR currents in BAPTA-loaded neurons,"[1]; 50 nM SEA0400, 1 mM external Ca2+, neurons loaded with BAPTA",abolished the effect; also recorded: did not cause NMDAR inhibition
same,voltage dependence of decrease of steady-state amplitude,"[1]; 50 nM SEA0400, -70 mV versus +30 mV, 1 mM Ca2+",did not depend on membrane voltage
same,effect on steady-state amplitude of NMDA-activated currents in Ca2+-free solution,"[1]; 50 nM SEA0400, Ca2+ omitted from external solution, -70 mV",abolished the effect; also recorded: did not cause any decrease
same,IC50,"[1]; 2 mM Ca2+, -70 mV, 100 µM NMDA + 30 µM Gly, steady state, read-out: IC50 for SEA0400 inhibition of NMDA-activated currents",27 nM and ~27 nM
same,decrease of steady-state amplitude of NMDAR currents (upper limit of effect),"[1]; SEA0400 itself, extracellular Ca2+ present",≤ 30%
same,decay time constant of NMDAR current from peak to steady state,"[1]; in the presence of 50 nM SEA0400, 1 mM Ca2+, -70 mV",2.0 ± 0.2 s
c1ccc(C2(N3CCCCC3)CCCCC2)cc1 [phencyclidine],rate constant of dissociation from NMDAR channels,[3],about 0.03 s^-1
